Data from patent publication US12484584B2, “Methods and uses of a mixture comprising alpha-cypermethrin and dinotefuran for controlling bed bugs” (BASF AGRO B.V., priority 2020, dated 2025).
Like-named read-outs stand apart in the source and are kept apart here.

Test system: C. lectularius
Assay: residual contact assay in treated glass vials, with Colby synergy analysis
Format: in vivo
Conditions: Cimex lectularius, 72 h; for mortality at 2 ppm: 2 ppm dinotefuran; for mortality at 4 ppm: 4 ppm dinotefuran; for mortality at 6 ppm: 6 ppm dinotefuran; for mortality at 8 ppm: 8 ppm dinotefuran; for mortality at 1 ppm: 1 ppm alpha-cypermethrin
Experimental: Glass vials (20 mL scintillation) were treated with 445 μL of varying concentrations of α-cypermethrin dissolved in acetone, respectively dinotefuran or mixtures of α-cypermethrin and dinotefuran in the indicated ratios. Vials were turned on their sides and placed on an automated roller table. The vials were rolled (6 rpm) uncapped to allow an even coating of the treatment. After rolling, vials were allowed to completely dry for at least an hour. Each treatment was replicated five times. Approximately six bed bugs, Cimex lectularius, were placed into each vial and were exposed to treatments at room temperature for the duration of the study.
After dose response testing, assays combining two active ingredients were conducted using the same method described above. The rates used in the combination treatments for each active ingredient, α-cypermethrin and dinotefuran, were the same concentrations used when they were tested independently.
When applied in combination, the toxicological interaction between two compounds is classified based on the resultant impact on the observed effect. The interaction is termed antagonistic when the observed effect is less than the Colby expected mortality based on the responses of the two compounds applied independently at the same doses. When the observed effect of two compounds applied in combination is equal to that of the Colby expected mortality based on the responses of the two compounds applied independently, the relationship is described as additive. Finally, a synergistic interaction means that the effect of the two compounds applied in combination is greater than the Colby expected mortality based on the responses of the two compounds applied independently at the same doses.
Ataxia+mortality data at 48 hours were used to determine whether there was a synergistic effect in the combined use of α-cypermethrin and dinotefuran.
Abbott's correction for control mortality and the Colby method for testing synergy were used to analyze combination data. The method is as follows: Abbott's corrected mortality per observation (at 3 DAE)=[(% observed mortality−% control mortality)/(100%−% control mortality)]×100. Colby's expected mortality per combination observation=% mortality (A)+% mortality (B)−(% mortality (A)×% mortality (B))/100. Synergy ratio=% observed mortality/% Colby expected mortality.
Additive interactions have synergy ratios equal to 1, antagonistic interactions have synergy ratios of less than 1, and synergistic interactions have synergy ratios of greater than 1.

[1] = corrected for control mortality, read-out: Abbott's CM (Abbott's corrected mortality)
[2] = residual contact, read-out: Mortality (%) @ 72 h

## CNC(=N[N+](=O)[O-])NCC1CCOC1 (racemic) [dinotefuran, (RS)-1-methyl-2-nitro-3-(tetrahydro-3-furylmethyl) guanidine]
[1]
  mortality at 2 ppm: 3.4%
  mortality at 4 ppm: 3.4%
  mortality at 6 ppm: 3.4%
  mortality at 8 ppm: 3.4%
[2]
  mortality at 2 ppm: 6.7%
  mortality at 4 ppm: 6.7%
  mortality at 6 ppm: 6.7%
  mortality at 8 ppm: 6.7%

## CC1(C)C(C=C(Cl)Cl)C1C(=O)OC(C#N)c1cccc(Oc2ccccc2)c1 (racemic) [alpha-cypermethrin, racemate comprising (R)-α-cyano-3-phenoxybenzyl (1S, 3S)-3-(2,2-dichlorovinyl)-2,2-dimethylcyclopropanecarboxylate; (S)-α-cyano-3-phenoxybenzyl (1R, 3R)-3-(2,2-dichlorovinyl)-2,2-dimethylcyclopropanecarboxylate]
[1]
  mortality at 1 ppm: 24.1%
[2]
  mortality at 1 ppm: 26.7%
